Test systems include OVCAR-4 ovarian; SN12C renal; HOP-62 NSCLC; MOLT-4 leukemia; OVCAR-8 ovarian; HOP-92 NSCLC; COLO 205 colon; RPMI-8226 leukemia; EKVX NSCLC; SF-295 CNS.
Holding throughout (experiment): DTP human tumour cell line panel, 48 h

Each structure is given as a SMILES string. “And” between values parts separate entries of the source, which are not always exact repeats. Equal entries are not always repeated.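 Growth conditions: 96-well plates. Treatment: test compound, 48 hours, 5 concentrations. Analysis: linear interpolation between bracketing concentrations; unreached endpoints set to highest concentration. GI50 = concentration required for 50% inhibition of growth. At the TGI there is no net growth.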 Where only a bound is given, the exact number is not on record here.

Regarding `O=C1c2ccccc2-c2c1c1ccc([N+](=O)[O-])cc1c(=O)n2CCCn1ccnc1`, the GI50 (as a rule, the concentration that inhibits growth by half) in the assay with OVCAR-4 ovarian is 0.943 µM; with SN12C renal it was 0.0153 µM; in the assay with HOP-62 NSCLC, 0.173 µM; in the assay with MOLT-4 leukemia it was 2.12 µM; in the assay on OVCAR-8 ovarian, 0.118 µM; with HOP-92 NSCLC, 2.18 µM. The GI50 with COLO 205 colon is 4.57 µM; in the assay with RPMI-8226 leukemia, 0.0153 µM; in the assay with EKVX NSCLC, 6.16 µM; with SF-295 CNS, 0.306 µM. Also, the total growth inhibition concentration (TGI) (commonly the concentration giving total growth inhibition) with OVCAR-4 ovarian came to 13.2 µM; in the assay on SN12C renal it was 0.0378 µM; in the assay with HOP-62 NSCLC, 0.708 µM; in the assay with MOLT-4 leukemia it was 4.64 µM; with OVCAR-8 ovarian it was 4.78 µM; in the assay with HOP-92 NSCLC it was 29.9 µM. Besides, the TGI in the assay on COLO 205 colon is above 38.5 µM; with RPMI-8226 leukemia, 0.0653 µM; with EKVX NSCLC it was above 21.8 µM; in the assay on SF-295 CNS, 2.29 µM.
`Clc1ccc(COC(Cn2ccnc2)c2ccc(Cl)cc2Cl)c(Cl)c1` (centres undefined): the GI50 in the assay on OVCAR-4 ovarian is 2.91 µM; in the assay on SN12C renal, 2.63 µM; in the assay on HOP-62 NSCLC, 2.07 µM; in the assay with OVCAR-8 ovarian, 4.21 µM; in the assay on HOP-92 NSCLC, 1.74 µM; in the assay on COLO 205 colon, 1.62 µM and 10.1 µM and 3.78 µM. Besides, the GI50 with RPMI-8226 leukemia was 3.67 µM; in the assay with EKVX NSCLC it was 5.64 µM; in the assay with SF-295 CNS, 2.29 µM. Also, the TGI in the assay with OVCAR-4 ovarian is 18.4 µM and 23.3 µM and 25.7 µM; with SN12C renal it was 11.7 µM and 27.1 µM and 20.7 µM; with HOP-62 NSCLC it was 5.73 µM and 27.2 µM and 26.6 µM; in the assay with MOLT-4 leukemia, 15.1 µM and 22.2 µM and 13.9 µM; in the assay on OVCAR-8 ovarian, 27.3 µM and 36.9 µM and 22.1 µM; with HOP-92 NSCLC, 8.44 µM and 27.1 µM. The TGI in the assay with COLO 205 colon was 3.18 µM and 22.1 µM and 16.1 µM; in the assay on RPMI-8226 leukemia, 18.8 µM and 37.7 µM; in the assay with EKVX NSCLC it was 18.4 µM and 29.1 µM and 23.1 µM; in the assay on SF-295 CNS, 8.73 µM and 23.7 µM and 23.8 µM.
Take `O=C1CCC(N2C(=O)c3cccc(NCCOCCOCCNC(=O)c4cc5c(o4)C(=O)c4ccccc4C5=O)c3C2=O)C(=O)N1` (centres undefined): the GI50 with OVCAR-4 ovarian was 1.29 µM; in the assay with SN12C renal, 1.54 µM; in the assay with HOP-62 NSCLC, 1.84 µM; in the assay on MOLT-4 leukemia it was 2.73 µM; in the assay with OVCAR-8 ovarian, 2.04 µM; in the assay with HOP-92 NSCLC, 3.27 µM. Also, the GI50 in the assay on COLO 205 colon is 1.98 µM; with RPMI-8226 leukemia, 2.43 µM; in the assay on EKVX NSCLC it was 2.62 µM; in the assay with SF-295 CNS, 1.68 µM. Further, the TGI worked out at 2.57 µM in the assay on OVCAR-4 ovarian; 2.92 µM in the assay with SN12C renal; 3.3 µM in the assay with HOP-62 NSCLC; 7.11 µM in the assay with MOLT-4 leukemia; 10.5 µM in the assay with OVCAR-8 ovarian; 12.5 µM with HOP-92 NSCLC. Besides, the TGI in the assay on COLO 205 colon was 3.94 µM; in the assay on RPMI-8226 leukemia it was 7.85 µM; in the assay with EKVX NSCLC, 8.39 µM; with SF-295 CNS, 3.08 µM.
For `CCCc1n(Cc2ccc3ccccc3n2)cc[n+]1Cc1ccc2ccccc2c1`, the GI50 is 0.357 µM in the assay on OVCAR-4 ovarian; 0.478 µM in the assay with SN12C renal; 1.63 µM with HOP-62 NSCLC; 0.708 µM in the assay on MOLT-4 leukemia; 0.779 µM in the assay on OVCAR-8 ovarian; 0.188 µM in the assay on HOP-92 NSCLC. Further, the GI50 in the assay with COLO 205 colon is 0.319 µM; with RPMI-8226 leukemia, 0.275 µM; in the assay with EKVX NSCLC, 2.16 µM; with SF-295 CNS, 2.06 µM. Also, the TGI with OVCAR-4 ovarian came to 6.59 µM; in the assay with SN12C renal it was 3.51 µM; with HOP-62 NSCLC, 5.38 µM; with MOLT-4 leukemia, 6.08 µM; with OVCAR-8 ovarian it was 4.65 µM; with HOP-92 NSCLC, 1.12 µM. Moreover, the concentration for total growth inhibition (TGI) in the assay with COLO 205 colon amounted to 1.34 µM; with RPMI-8226 leukemia, 1.62 µM; in the assay on EKVX NSCLC, 14.9 µM; in the assay with SF-295 CNS, 5.76 µM.
With `CCN(CC)c1ccc(/C=N/NC(=O)c2ccccc2Nc2ccnc(C(F)(F)F)c2)c(O)c1`, the GI50 was 0.0856 µM in the assay with OVCAR-4 ovarian; 0.278 µM in the assay with SN12C renal; 0.121 µM in the assay with HOP-62 NSCLC; 0.102 µM with MOLT-4 leukemia; 0.22 µM in the assay on OVCAR-8 ovarian; 0.428 µM in the assay on HOP-92 NSCLC. For the same compound, the 50% growth inhibitory concentration (GI50) in the assay with COLO 205 colon was 0.212 µM; with RPMI-8226 leukemia it was 0.0417 µM; in the assay with EKVX NSCLC, 0.101 µM; in the assay on SF-295 CNS, 0.184 µM. For the same compound, the total growth inhibition concentration (TGI) was above 100 µM in the assay on OVCAR-4 ovarian; above 100 µM with SN12C renal; 5.35 µM with HOP-62 NSCLC; 4.2 µM with MOLT-4 leukemia; above 100 µM with OVCAR-8 ovarian; above 100 µM with HOP-92 NSCLC. Moreover, the TGI is above 100 µM in the assay with COLO 205 colon, 0.601 µM in the assay with RPMI-8226 leukemia, 4.35 µM with EKVX NSCLC and 6.27 µM with SF-295 CNS.
In the case of `CCCCCCCCCCCCC(NC(C)=O)(C(=O)OCC)C(=O)OCC`, the GI50 is 10.4 µM with OVCAR-4 ovarian; 10.2 µM with SN12C renal; 13.9 µM with HOP-62 NSCLC; 18.2 µM in the assay on MOLT-4 leukemia; 12.7 µM in the assay with OVCAR-8 ovarian; 12.2 µM in the assay with HOP-92 NSCLC. For the same compound, the GI50 with COLO 205 colon was 12.8 µM; in the assay on RPMI-8226 leukemia, 10.8 µM; with EKVX NSCLC it was 6.99 µM; in the assay with SF-295 CNS it was 11.2 µM. In addition, the total growth inhibition concentration (TGI) was 22.2 µM in the assay on OVCAR-4 ovarian; 22 µM in the assay with SN12C renal; 27.5 µM in the assay with HOP-62 NSCLC; 62.4 µM with MOLT-4 leukemia; 32.3 µM with OVCAR-8 ovarian; 25.4 µM in the assay with HOP-92 NSCLC. Further, the TGI in the assay on COLO 205 colon was found to be 26.3 µM; in the assay on RPMI-8226 leukemia it was 44.8 µM; in the assay on EKVX NSCLC, 26.1 µM; in the assay on SF-295 CNS, 26.9 µM.

Source of the values: PubChem BioAssay (NCI).
